Consider two compounds from patent US9492472B2, “Compositions and methods of treating cancer” (Case Western Reserve University, priority 2009, dated 2016).

Series [1] has as its system A7 cells.
The nature of series [2]: Cell penetrating capacity of the pentapeptide. The series is classed as cell-based. The following applies: cells incubated with the peptide >1 hr (n.s.).
For series [3] the following is noted: reported earlier; cited from earlier work.

Peptide text beside a SMILES is read from it.

Turning to `CC[C@H](C)[C@H](NC(=O)[C@H](CC(C)C)NC(=O)[C@H](Cc1ccccc1)NC(=O)[C@H](CO)NC(=O)[C@@H](NC(=O)[C@H](CC(C)C)NC(=O)[C@H](CC(C)C)NC(=O)[C@@H](NC(=O)[C@@H](NC(=O)[C@@H]1CCCN1C(=O)[C@@H]1CCCN1C(=O)[C@H](CCCCN)NC(=O)[C@@H]1CCCN1C(=O)[C@H](CCCNC(=N)N)NC(=O)[C@H](CCCCN)NC(=O)[C@@H](N)CCCCN)C(C)C)[C@@H](C)CC)[C@@H](C)CC)C(=O)N[C@@H](Cc1ccccc1)C(=O)N[C@@H](CC(C)C)C(=O)N[C@H](C(=O)N[C@H](C(=O)NCC(=O)O)C(C)C)[C@@H](C)CC` [KKRPK-PrP-GPI-PSS] (H-KKRPKPPVILLISFLIFLIVG-OH), the toxicity entry in series [1] is recorded as “not toxic”.

Turning to “KKRPK (listed as Homo sapiens) [cell penetrating pentapeptide, transport moiety]”, the “entry into cells without Ca2+” value in series [2] is given as “can enter the cells”. Besides, in series [3], the cell penetrating capacity entry was “has cell penetrating capacity”.
